US20180201592A1, “2-AMINO-1,3,4-THIADIAZINE AND 2-AMINO-1,3,4-OXADIAZINE BASED ANTIFUNGAL AGENTS” (F2G Limited, priority 2015, published 2018)

Tests used:
Conditions in all cases: banded MIC grade
Aspergillus fumigatus = assay: Minimum inhibitory concentration, YAG medium; assay type: cell-based
How it was run: (§1)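 Growth was read as optical density at 485 nm after 24 hrs at 35° C, and the MIC taken as the lowest drug concentration cutting growth by >70% relative to drug-free wells. Plates held doubling dilutions (50-0.05 mg/L) with 1-2×10^4 cfu/mL spores in YAG medium.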

A. fumigatus 210 [1] = assay: Minimum inhibitory concentration, YAG medium; assay type: cell-based, Aspergillus fumigatus
How it was run: as §1

A. terreus 49 [2] = assay: Minimum inhibitory concentration, YAG medium; assay type: cell-based, Aspergillus terreus
How it was run: (§2)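 Twofold aqueous dilution series, prepared from a DMSO stock (5 mg/mL), were inoculated with Aspergillus spp. spores; incubation lasted 24 hrs at 35° C before OD 485 nm readings.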

Aspergillus flavus = assay: Minimum inhibitory concentration, YAG medium; assay type: cell-based
How it was run: as §2

Aspergillus niger = assay: Minimum inhibitory concentration, YAG medium; assay type: cell-based
How it was run: as §2

Aspergillus terreus = assay: Minimum inhibitory concentration, YAG medium; assay type: cell-based
How it was run: as §2

A. flavus = assay: Minimum inhibitory concentration, RPMI medium; assay type: cell-based
How it was run: (§3)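 Incubated at 35° C for 24-48 hrs in RPMI 1640 with twofold water dilutions of compound (from 5 mg/mL stock in DMSO); absorbance at 485 nm indicated growth.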

A. niger = assay: Minimum inhibitory concentration, RPMI medium; assay type: cell-based
How it was run: as §3

A. terreus 49 [3] = assay: Minimum inhibitory concentration, RPMI medium; assay type: cell-based
How it was run: as §3

A. terreus = assay: Minimum inhibitory concentration, RPMI medium; assay type: cell-based
How it was run: as §3

C. albicans = assay: Minimum inhibitory concentration, RPMI medium; assay type: cell-based
How it was run: as §3

C. glabrata = assay: Minimum inhibitory concentration, RPMI medium; assay type: cell-based
How it was run: as §3

C. krusei = assay: Minimum inhibitory concentration, RPMI medium; assay type: cell-based
How it was run: as §3

C. parapsilosis = assay: Minimum inhibitory concentration, RPMI medium; assay type: cell-based
How it was run: as §3

C. tropicalis = assay: Minimum inhibitory concentration, RPMI medium; assay type: cell-based
How it was run: as §3

A. fumigatus 210 [4] = assay: Minimum inhibitory concentration, RPMI medium; assay type: cell-based
How it was run: (§4)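 Broth microdilution in RPMI 1640 (2% glucose, 0.135 M MOPS, pH 7.0) at 1-2×10^4 cfu/mL, testing 50-0.05 mg/L in doubling steps. After 24-48 hrs at 35° C, OD at 485 nm was read, and the MIC was taken as the lowest drug level suppressing growth by >80% relative to drug-free wells.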

A. fumigatus = assay: Minimum inhibitory concentration, RPMI medium; assay type: cell-based
How it was run: as §4

| Structure (SMILES) | MIC grade, A. FUMIGATUS, YAG media (Aspergillus fumigatus) | MIC grade, A. FUMIGATUS 210, YAG media (A. fumigatus 210 [1]) | MIC grade, A. TERREUS 49, YAG media (A. terreus 49 [2]) | MIC grade, A. FLAVUS, YAG media (Aspergillus flavus) | MIC grade, A. NIGER, YAG media (Aspergillus niger) | MIC grade, A. TERREUS, YAG media (Aspergillus terreus) | MIC grade, A. FLAVUS, RPMI media (A. flavus) | MIC grade, A. NIGER, RPMI media (A. niger) | MIC grade, A. TERREUS 49, RPMI media (A. terreus 49 [3]) | MIC grade, A. TERREUS, RPMI media (A. terreus) | MIC grade, C. ALBICANS, RPMI media (C. albicans) | MIC grade, C. GLABRATA, RPMI media (C. glabrata) | MIC grade, C. KRUSEI, RPMI media (C. krusei) | MIC grade, C. PARAPSILOSIS, RPMI media (C. parapsilosis) | MIC grade, C. TROPICALIS, RPMI media (C. tropicalis) | MIC grade, A. FUMIGATUS 210, RPMI media (A. fumigatus 210 [4]) | MIC grade, A. FUMIGATUS, RPMI media (A. fumigatus) |
| --- | --- | --- | --- | --- | --- | --- | --- | --- | --- | --- | --- | --- | --- | --- | --- | --- | --- |
| CCc1ccc(OCCCCC2=NN=C(N)SC2)cc1 | 3 (3: 0.2-1 mg/L) | 3 (3: 0.2-1 mg/L) | 4 (4: <0.2 mg/L) | 4 (4: <0.2 mg/L) | 3 (3: 0.2-1 mg/L) | 4 (4: <0.2 mg/L) | 2 (2: 5-20 mg/L) | 2 (2: 5-20 mg/L) | 2 (2: 5-20 mg/L) | 3 (3: 1-5 mg/L) | 4 (4: <1 mg/L) | 2 (2: 5-20 mg/L) | 4 (4: <1 mg/L) | 4 (4: <1 mg/L) | 4 (4: <1 mg/L) | 2 (2: 5-20 mg/L) | 2 (2: 5-20 mg/L) |
| NC1=NN=C(CCCCOCc2cccc(Cl)c2)CS1 | 4 (4: <0.2 mg/L) | 4 (4: <0.2 mg/L) | 4 (4: <0.2 mg/L) | 4 (4: <0.2 mg/L) | 4 (4: <0.2 mg/L) | 4 (4: <0.2 mg/L) | 4 (4: <1 mg/L) | 3 (3: 1-5 mg/L) | 3 (3: 1-5 mg/L) | 3 (3: 1-5 mg/L) | 4 (4: <1 mg/L) | 3 (3: 1-5 mg/L) | 4 (4: <1 mg/L) | 4 (4: <1 mg/L) | 4 (4: <1 mg/L) | 2 (2: 5-20 mg/L) | 4 (4: <1 mg/L) |
| NC1=NN=C(CCCCOCc2ccc(C(F)(F)F)cc2)CS1 | 4 (4: <0.2 mg/L) | 4 (4: <0.2 mg/L) | 4 (4: <0.2 mg/L) | 4 (4: <0.2 mg/L) | 4 (4: <0.2 mg/L) | 4 (4: <0.2 mg/L) | 3 (3: 1-5 mg/L) | 3 (3: 1-5 mg/L) | 2 (2: 5-20 mg/L) | 3 (3: 1-5 mg/L) | 4 (4: <1 mg/L) | 2 (2: 5-20 mg/L) | 4 (4: <1 mg/L) | 4 (4: <1 mg/L) | 4 (4: <1 mg/L) | 2 (2: 5-20 mg/L) | 2 (2: 5-20 mg/L) |
| CCCCc1ccc(COCCCCC2=NN=C(N)SC2)cc1 | 1 (1: ≥5 mg/L) | 1 (1: ≥5 mg/L) | 2 (2: 1-5 mg/L) | 3 (3: 0.2-1 mg/L) | 3 (3: 0.2-1 mg/L) | 2 (2: 1-5 mg/L) | 2 (2: 5-20 mg/L) | 2 (2: 5-20 mg/L) | 1 (1: ≥20 mg/L) | 1 (1: ≥20 mg/L) | 2 (2: 5-20 mg/L) | 2 (2: 5-20 mg/L) | 3 (3: 1-5 mg/L) | 3 (3: 1-5 mg/L) | 2 (2: 5-20 mg/L) | 1 (1: ≥20 mg/L) | 1 (1: ≥20 mg/L) |
| NC1=NN=C(CCCCOCc2ccc(Cl)cc2)CS1 | 4 (4: <0.2 mg/L) | 4 (4: <0.2 mg/L) | 4 (4: <0.2 mg/L) | 4 (4: <0.2 mg/L) | 4 (4: <0.2 mg/L) | 4 (4: <0.2 mg/L) | 4 (4: <1 mg/L) | 3 (3: 1-5 mg/L) | 3 (3: 1-5 mg/L) | 3 (3: 1-5 mg/L) | 4 (4: <1 mg/L) | 3 (3: 1-5 mg/L) | 4 (4: <1 mg/L) | 4 (4: <1 mg/L) | 3 (3: 1-5 mg/L) | 2 (2: 5-20 mg/L) | 3 (3: 1-5 mg/L) |
| Cc1cccc(COCCCCC2=NN=C(N)SC2)c1 | 3 (3: 0.2-1 mg/L) | 3 (3: 0.2-1 mg/L) | 3 (3: 0.2-1 mg/L) | 3 (3: 0.2-1 mg/L) | 3 (3: 0.2-1 mg/L) | 3 (3: 0.2-1 mg/L) | 3 (3: 1-5 mg/L) | 2 (2: 5-20 mg/L) | 2 (2: 5-20 mg/L) | 2 (2: 5-20 mg/L) | 3 (3: 1-5 mg/L) | 2 (2: 5-20 mg/L) | 3 (3: 1-5 mg/L) | 3 (3: 1-5 mg/L) | 3 (3: 1-5 mg/L) | 2 (2: 5-20 mg/L) | 3 (3: 1-5 mg/L) |
| NC1=NN=C(CCCCCOc2ccccn2)CS1 | 4 (4: <0.2 mg/L) | 4 (4: <0.2 mg/L) | 4 (4: <0.2 mg/L) | 4 (4: <0.2 mg/L) | 4 (4: <0.2 mg/L) | 4 (4: <0.2 mg/L) | 4 (4: <1 mg/L) | 4 (4: <1 mg/L) | 4 (4: <1 mg/L) | 4 (4: <1 mg/L) | 4 (4: <1 mg/L) | 3 (3: 1-5 mg/L) | 4 (4: <1 mg/L) | 4 (4: <1 mg/L) | 4 (4: <1 mg/L) | 3 (3: 1-5 mg/L) | 4 (4: <1 mg/L) |
